Measured values taken from US20110152166A1, “METHOD OF MODULATION OF PROTEIN PHOSPHORYLATION-DEPENDENT CONFORMATIONAL TRANSITIONS WITH LOW MOLECULAR WEIGHT COMPOUNDS” (priority 2006, published 2011).
Ends that are not written are not given here.

What was measured:
[1] = target: T1, PDK1 phosphorylation of GST-S6K1-T2[Thr412Glu] (Homo sapiens, UniProt O15530); test: PDK1 phosphorylation of substrate S6K1 in vitro; type: biochemical; settings: compound 100 and 200 μM
T1 construct: GST (N); made in house; host or cells: HEK293
Method: FIG. 4—Small compounds designed to bind the HM/PIF-pocket of PDK1 can block the PDK1-dependent phosphorylation and activation of substrates that require docking to the HM/PIF-pocket of PDK1. (A) Effect of compound 1 (100 and 200 μM) on PDK1 phosphorylation of its substrate S6K1. The phosphorylation reaction was performed in vitro with [γ^32P]ATP and then separated on SDS-PAGE followed by exposure to phosphorimager. The radioactive band corresponding to phosphorylated GST-56K1-T2[Thr412Glu] (S6K[412E]) is indicated. (B) PDK1 or PDK1[Val127Leu] (PDK1[V127L]) were pre-incubated with GST-[…]N-SGK1 [Ser422Asp] […] (C) The activity of S6K was measured in vitro after glutathione sepharose purification; aliquots of purified proteins were separated on SDS-PAGE and the level of activation loop phosphorylation was visualized by immunoblotting using phospho-specific antibodies that recognize the phosphorylated activation loop, followed by stripping of the membranes and re-probing with anti-GST to verify the presence of equal amounts of protein. (D) Cells overexpressing GST-56K1-T2[Thr412Glu] were treated as in (C) but S6K activity was measured in vitro after immunoprecipitation of the GST-fusion protein with anti-GST antibodies; the level of S6K expression was analysed by western-blotting of crude extracts. […]

[2] = target: T2, PDK1 catalytic domain (50-360) (Homo sapiens, UniProt O15530); test: TNP-ATP/PDK1 fluorescence, conformation of the ATP binding site
T2 construct: the catalytic domain of PDK1 (50-359) produced in SF9 insect cells; His-tag (N, cleaved yes); made in house; host or cells: SF9 insect cells (baculovirus)
Method: FIG. 5—Modulation of PDK1 conformation by phosphopeptides and small compounds. Effect of P-HM-polypeptides and compound 1 on the emission fluorescence of trinitrophenyl-ATP (TNP-ATP)/PDK1. The fluorescence emission spectra from TNP-ATP were recorded in the presence or absence of P-HM-polypeptides, PIFtide and compound 1. (A) Effect of P-HM-RSK (65 μM) on the fluorescence by TNP-ATP. (B) Effect of compound 1 on the fluorescence emission from TNP-ATP. Fluorescence intensities are expressed as %. […] The effect of P-HM-PKB was identical to that by P-HM-RSK.
The activation of PDK1 by P-HM-polypeptides and small compounds is due to a change in the conformation of the enzyme. We probed the conformation of the ATP binding site in PDK1 by scanning the steady-state fluorescence of TNP-ATP/PDK1, in the presence or absence of P-HM-polypeptides, PIFtide, or small molecular weight compounds. Data were obtained in a Varian Cary Eclipse spectrofluorometer (excitation γ=479 nm; emission scanning, γ=500-600 nm; excitation slit=10 nm; emission slit=10 nm) at a rate of 200 nm/min, with 150 datapoints/100 nm scanning and 0.3 s averaging time. […] Non-phosphorylated HM-polypeptides increased the fluorescence intensity of TNP-ATP in the absence of PDK1 and were not used in the study. […]

T2 sequence (O15530 50-359): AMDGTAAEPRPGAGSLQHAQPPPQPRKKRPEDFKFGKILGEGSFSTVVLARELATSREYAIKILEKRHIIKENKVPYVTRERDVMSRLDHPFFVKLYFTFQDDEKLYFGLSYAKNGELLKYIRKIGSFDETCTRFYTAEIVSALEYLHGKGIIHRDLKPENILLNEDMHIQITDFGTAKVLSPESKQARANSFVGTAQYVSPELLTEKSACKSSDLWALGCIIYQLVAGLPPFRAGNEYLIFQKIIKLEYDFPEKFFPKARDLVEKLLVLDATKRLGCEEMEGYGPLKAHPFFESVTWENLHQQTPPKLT
T1 sequence (O15530 whole entry, change not shown): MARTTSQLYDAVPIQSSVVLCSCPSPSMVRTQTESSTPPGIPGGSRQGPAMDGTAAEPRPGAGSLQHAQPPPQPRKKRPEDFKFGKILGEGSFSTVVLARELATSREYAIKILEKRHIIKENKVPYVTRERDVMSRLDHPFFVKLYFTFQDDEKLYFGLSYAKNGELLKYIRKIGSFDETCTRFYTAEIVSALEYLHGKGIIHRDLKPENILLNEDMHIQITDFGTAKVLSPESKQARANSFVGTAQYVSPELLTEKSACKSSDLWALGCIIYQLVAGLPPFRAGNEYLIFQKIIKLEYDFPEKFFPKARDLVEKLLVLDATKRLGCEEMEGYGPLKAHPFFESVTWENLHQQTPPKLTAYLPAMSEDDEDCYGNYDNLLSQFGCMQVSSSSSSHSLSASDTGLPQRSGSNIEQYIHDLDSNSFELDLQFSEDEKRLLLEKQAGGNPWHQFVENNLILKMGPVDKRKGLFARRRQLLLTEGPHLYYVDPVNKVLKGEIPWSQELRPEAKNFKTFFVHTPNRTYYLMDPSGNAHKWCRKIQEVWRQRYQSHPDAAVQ

Row | Compound | PDK1-catalyzed phosphorylation of S6K1 (in words) [1] | effect on TNP-ATP/PDK1 fluorescence (in words) ([2]; 40 μM TNP-ATP, 15 μM PDK1) | Emax ([2]; at 10 times the value of its Kd for PDK1, read-out: maximal effect on TNP-ATP fluorescence intensity)
1 | O=C(O)CSC(CC(=O)c1ccc(Cl)cc1)c1ccccc1 (stereo not drawn) [Compound 1] | decreased | – | –
2 | REPRILSEEEQEMFRDFDYIADWC [PIFtide, reference compound] | – | decreased the intensity | 65%
